Like-named read-outs stand apart in the source and are kept apart here.
Key:
TDO2 = biological target: T1, TDO2 (Homo sapiens, UniProt P48775); assay: TDO2 cell assay (NFK GreenScreen, SW48 cells); type: cell-based; conditions: SW48 cells (high TDO expressing)
T1 construct: decreased levels of NFK in SW48 cells (high TDO expressing cells)

IDO = biological target: T2, IDO (Homo sapiens, UniProt P14902); assay: IDO cell assay (NFK GreenScreen, A172+IFNg cells); type: cell-based; conditions: A172 cells + 100 ng/ml IFNγ (high IDO expressing), 100 uM tryptophan, 24 hours; TDO selectivity table; read-out: IDO cell Fluor EC50
T2 construct: selective against A172+IFNg cells (high IDO expressing cells)
T2 sequence (P14902 whole entry): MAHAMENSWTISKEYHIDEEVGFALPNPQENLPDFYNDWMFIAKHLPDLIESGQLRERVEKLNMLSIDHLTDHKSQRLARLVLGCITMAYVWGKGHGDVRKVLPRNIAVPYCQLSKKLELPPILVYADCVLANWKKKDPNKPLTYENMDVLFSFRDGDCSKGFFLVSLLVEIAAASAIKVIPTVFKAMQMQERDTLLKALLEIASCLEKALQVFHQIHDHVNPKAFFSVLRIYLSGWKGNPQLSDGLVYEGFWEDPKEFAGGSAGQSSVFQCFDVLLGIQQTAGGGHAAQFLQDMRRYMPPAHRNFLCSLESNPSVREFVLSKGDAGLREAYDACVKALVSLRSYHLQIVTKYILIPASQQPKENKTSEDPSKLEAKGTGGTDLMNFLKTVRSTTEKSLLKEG
Description: Cells are counted on a Vi-Cell (Beckman Coulter). […] The final DMSO concentration is 0.5%.
Compounds of the invention were tested for selectivity against TDO over IDO. The cell based assay described above was used to test for TDO and IDO activity.

[1] = 200 uM tryptophan, 24 hours, Table 3, read-out: TDO2 Cell Fluor EC50
[2] = TDO selectivity table, read-out: TDO2 cell Fluor EC50

T1 sequence (P48775 whole entry): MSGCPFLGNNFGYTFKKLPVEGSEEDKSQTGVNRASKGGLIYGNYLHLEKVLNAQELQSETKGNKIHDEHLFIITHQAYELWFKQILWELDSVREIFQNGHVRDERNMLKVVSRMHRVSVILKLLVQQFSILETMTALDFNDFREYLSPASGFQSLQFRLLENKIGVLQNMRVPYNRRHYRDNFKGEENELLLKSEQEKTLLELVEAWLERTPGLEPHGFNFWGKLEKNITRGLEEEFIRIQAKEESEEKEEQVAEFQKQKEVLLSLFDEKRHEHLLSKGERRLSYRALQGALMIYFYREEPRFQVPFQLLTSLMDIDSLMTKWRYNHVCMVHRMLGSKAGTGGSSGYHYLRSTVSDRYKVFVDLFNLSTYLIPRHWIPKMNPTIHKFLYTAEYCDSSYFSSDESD

| SMILES | EC50 (TDO2; [1]) [nM] | EC50 (TDO2; [2]) [nM] | EC50 (IDO) [µM] |
| --- | --- | --- | --- |
| OC1c2cnccc2CCC1C1c2ccccc2-c2cncn21 (single isomer, unassigned) [Example 04e] | 49 | 49 | 1.2 |
| Cn1ncc2c1CCC(C1c3ccccc3-c3cncn31)C2O (single isomer, unassigned) [Example 93a] | 380 | 380 | 13 |
| OC1c2cncnc2CCC1C1c2ccccc2-c2cncn21 (single isomer, unassigned) [Example 94c] | 110 | 110 | 8.4 |
| NS(=O)(=O)c1ccc2c(c1)CCC(C1c3ccccc3-c3cncn31)C2O (single isomer, unassigned) [Example 100g] | 57 | 57 | 1.7 |
| NS(=O)(=O)N1CCC(O)C(C2c3ccccc3-c3cncn32)CC1 (single isomer, unassigned) [Example 101d, 4-hydroxy-5-(5H-imidazo[5,1-a]isoindol-5-yl)azepane-1-sulfonamide] | 770 | 770 | 21 |
| OC1C(C2c3ccc(F)cc3-c3cncn32)CC12CCOCC2 (single isomer, unassigned) [Example 109c] | 230 | 230 | > 25 |
| OC1c2cnncc2CCC1C1c2ccccc2-c2cncn21 (single isomer, unassigned) [Example 112b] | 240 | 240 | 15 |
| O[C@@H]1c2c(Cl)cnn2CC[C@@H]1[C@@H]1c2ccccc2-c2cncn21 [Example 160a, (4S,5R)-3-chloro-5-((R)-5H-imidazo[5,1-a]isoindol-5-yl)-4,5,6,7-tetrahydropyrazolo[1,5-a]pyridin-4-ol] | > 25000 |  |  |
| O[C@H]1c2c(Cl)cnn2CC[C@H]1[C@H]1c2ccccc2-c2cncn21 [Example 160b, (4R,5S)-3-chloro-5-((S)-5H-imidazo[5,1-a]isoindol-5-yl)-4,5,6,7-tetrahydropyrazolo[1,5-a]pyridin-4-ol] | 200 |  |  |
| Nc1cc2n(n1)CC[C@H]([C@H]1c3ccccc3-c3cncn31)[C@H]2O [Example 161a, (4R,5R)-2-amino-5-((S)-5H-imidazo[5,1-a]isoindol-5-yl)-4,5,6,7-tetrahydropyrazolo[1,5-a]pyridin-4-ol] | 18000 |  |  |
| Nc1cc2n(n1)CC[C@@H]([C@H]1c3ccccc3-c3cncn31)[C@@H]2O [Example 161b, (4S,5S)-2-amino-5-((S)-5H-imidazo[5,1-a]isoindol-5-yl)-4,5,6,7-tetrahydropyrazolo[1,5-a]pyridin-4-ol] | 700 |  |  |
| Nc1cc2n(n1)CCC(C1c3ccccc3-c3cncn31)C2O [Example 161d, (4S,5R)-2-amino-5-((S)-5H-imidazo[5,1-a]isoindol-5-yl)-4,5,6,7-tetrahydropyrazolo[1,5-a]pyridin-4-ol] | 12000 |  |  |
| Nc1cc2n(n1)CCC(C1c3ccccc3-c3cncn31)C2O [Example 161f, (4R,5S)-2-amino-5-((R)-5H-imidazo[5,1-a]isoindol-5-yl)-4,5,6,7-tetrahydropyrazolo[1,5-a]pyridin-4-ol] | > 25000 |  |  |
| NC(=O)C1([C@@H](O)[C@H]2c3ccccc3-c3cncn32)CC1 [Example 165a, 1-((R)-hydroxy((R)-5H-imidazo[5,1-a]isoindol-5-yl)methyl)cyclopropane-1-carboxamide] | 16000 |  |  |
| NC(=O)C1([C@@H](O)[C@@H]2c3ccccc3-c3cncn32)CC1 [Example 165b, 1-((R)-hydroxy ((S)-5H-imidazo[5,1-a]isoindol-5-yl)methyl)cyclopropane-1-carboxamide] | > 25000 |  |  |
| NC(=O)C1([C@H](O)[C@@H]2c3ccccc3-c3cncn32)CC1 [Example 165d, 1-((S)-hydroxy ((S)-5H-imidazo[5,1-a]isoindol-5-yl)methyl)cyclopropane-1-carboxamide] | > 25000 |  |  |
| CS(=O)(=O)N1CC2(CC(C3c4ccccc4-c4cncn43)C2O)C1 (stereo not shown) [Example 183, 6-(5H-imidazo[5,1-a]isoindol-5-yl)-2-(methylsulfonyl)-2-azaspiro[3.3]heptan-5-ol] | 220 |  |  |

From patent US12583858B2 (Genentech, Inc., priority 2015, dated 2026)
